Values of other authors as cited in patent publication US20070059360A1, “WATER-DISPERSIBLE ANTI-RETROVIRAL PHARMACEUTICAL COMPOSITIONS” (priority 2005, published 2007).

Target: HIV reverse transcriptase (Human immunodeficiency virus type 1 group M subtype B, UniProt P04585)
Details: in vitro; reported by S. A. Riddler, et al

Cc1cn([C@H]2C=C[C@@H](CO)O2)c(=O)[nH]c1=O [Stavudine, 2′,3′-didehydro-3′-deoxythymidine]
Inhibition of HIV reverse transcriptase: potent inhibitor
